{"source": "patent US8802104B2", "about": "“Parathyroid hormone receptor activation and stem and progenitor cell expansion” (The General Hospital Corporation, priority 2002, dated 2014)", "key": {"[1]": {"tested_on": "lin-Sca-1+c-Kit+ cells in bone marrow", "assay": "In vivo PTH administration: flow cytometry of lin-Sca-1+c-Kit+ cells", "parameters": "species or system C57Bl/6 mice", "conditions": "four weeks PTH; P<0.01, FIG. 5d", "excerpt": "Bone marrow mononuclear cells were isolated as described above. Single cell suspensions were then stained with biotinylated lineage antibodies (CD3, CD4, CD8, Ter119, Gr-1, Mac-1 and B220) and phycoerythrin conjugated anti-Sca-1 and anti-c-Kit (Pharmingen, San Diego, Calif.). Cells were then labeled with a secondary fluorescein isothiocyanante conjugated streptavidin and analyzed on a FACScalibur cytometer (Becton Dickinson and Co., Franklin Lakes, N.J.) using Cell Quest software. […]\nFor PTH administration, 6-8 week old wild type C57/B male mice were used. […] At the end of the treatment period, ionized serum calcium was measured by the Ciba/Corning 634 Ca^++/pH analyzer, and, after euthanasia, the hind limbs and forelimbs were dissected and utilized for cytologic and histologic analysis.\nAs treatment of stromal cells with PTH led to an increase in the ability of the stromal cell population to support hematopoietic stem cells, it was investigated whether these effects could be recapitulated in vivo. Wild-type C57Bl/6 mice were injected daily with PTH using an intermittent dosing schedule known to increase osteoblasts, and the frequencies of LTC-ICs in the bone marrow were measured. […]"}, "[2]": {"assay": "PTH administration following myeloablation and bone marrow transplantation: survival", "assay_type": "in vivo, C57Bl/6 mice", "conditions": "at 30 days; lethal irradiation, limiting numbers of donor bone marrow cells, pulse dosing of PTH after transplant; FIG. 6", "experimental": "For the competitive transplant studies, 4×10^5 BM MNCs, obtained from CD45.1^+ B6.SJL (Jackson Laboratories, Bar Harbor, Me.) mice were mixed with 2×10^5 cells from mock injected or PTH injected CD45.2^+ C57Bl/6 mice. Recipient B6.SJL mice that had been lethally irradiated 24 hours previously with 10Gy of radiation (^137Cs source) were injected with cells. After 6 weeks, the mice were euthanized with CO2, the BM was removed and flushed with fully supplemented Iscove's Medium. The relative contribution of engraftment from the different cell sources was assessed by flow cytometry utilizing anti-CD45.1 and anti-CD45.2 antibodies (Pharmingen, San Diego, Calif.). To assess the effects of PTH administration post transplantation, recipient C57Bl/6 mice were lethally irradiated and then injected with 2×10^5 BM MNCs from a donor B6.SJL mouse. Twenty-four hours following the injection of the cells, mice were injected with PTH or mock injected as described above for four weeks.\nAssessing whether PPR stimulation could affect models relevant to the clinical use of stem cells in humans, the impact of PTH administration on animals undergoing myeloablation and bone marrow transplantation was assessed. Limiting numbers of bone marrow derived donor cells were used to mimic a setting of therapeutic need. […]"}, "[3]": {"tested_on": "HSCs in the peripheral circulation", "assay": "G-CSF mobilization of HSCs into peripheral circulation after chemotherapy", "assay_type": "in vivo, C57Bl/6 mice", "experimental": "Wild-type C57Bl/6 mice were treated with 5 mg of cyclophosphamide (Day 1). The day following injection of cyclophosphamide, mice received no treatment or were treated for 8 days with G-CSF (5 μg/day), 11 days with PTH (80 μg/kg/day) or a combination of G-CSF plus PTH. Mice that received a combination of both G-CSF and PTH received G-CSF treatment for 8 days and PTH treatment for 11 days. Following this treatment protocol, mice were injected with cyclophosphamide on Day 15 and treated with G-CSF, PTH or G-CSF and PTH as described above. The treatment protocol was then repeated for two subsequent cycles, as outlined in FIG. 7.\nAt the end of the four-cycle treatment with cyclophosphamide and G-CSF/PTH, the bone marrow was removed from the treated mice and competitive transplants into B6.SJL mice were performed to measure the maintenance of the HSC pool in the bone marrow. This involved mixing 5×10^5 BM cells from the treated C57Bl/6 mice (CD45.2) with 2.5×10^5 BM cells from the B6.SJL mice (CD45.1). These cells were then injected into lethally irradiated B6.SJL mice. Eighteen weeks following injection of the cells, peripheral blood was collected from the mice and the relative contribution of the HSCs from the treated animals was measured by flow cytometry for the CD45.2^+ cells. To assess the ability of the HSCs to be mobilized into the peripheral circulation, one week following treatment mice were mobilized with G-CSF (5 μg/day) for 5 days. Peripheral blood (300 μl) was collected from these mice and mixed with 2.5×10^5 BM cells from a B6.SJL mouse. These cells were injected into a lethally irradiated B6.SJL host. Eighteen weeks following injection of the cells, peripheral blood was collected from the mice and the relative contribution of the HSCs from the treated animals was measured by flow cytometry for the CD45.2^+ cells."}, "[4]": {"tested_on": "leukemic cells", "assay": "Direct effect of PTH on leukemic cells in vitro", "assay_type": "cell-based"}}}
{"substance": "Rat PTH (1-34)", "values": [{"measurement": "lin-Sca-1+c-Kit+ cells compared with mock treated controls", "setting": "[1]", "value": "higher frequency and absolute number"}, {"measurement": "survival", "setting": "[2]", "value": 100, "unit": "%"}, {"measurement": "mobilization of HSCs into the circulation with G-CSF", "setting": "[3]; no supportive G-CSF during chemotherapy, prior PTH treatment", "value": "increased with prior PTH treatment"}, {"measurement": "mobilization of HSCs into the peripheral circulation", "setting": "[3]; supportive G-CSF with concurrent PTH", "value": "partially reversed"}, {"measurement": "direct effect on leukemic cells", "setting": "[4]", "value": "did not directly affect"}]}
